Numbering of substitutions follows the chain as printed. Values joined by “and” are separate entries in the source; they are usually repeats but may differ in a detail not shown here. Identical values can stand only once. Like-named read-outs stand apart in the source and are kept apart here.
What was measured:
ARAF del 347_348 = target: T1, ARAF del 347_348 (Homo sapiens, UniProt P10398, DEL347-348); assay: PanQinase flash plate-based kinase assay
T1 sequence (P10398 with tags, fused parts or gaps DEL347-348): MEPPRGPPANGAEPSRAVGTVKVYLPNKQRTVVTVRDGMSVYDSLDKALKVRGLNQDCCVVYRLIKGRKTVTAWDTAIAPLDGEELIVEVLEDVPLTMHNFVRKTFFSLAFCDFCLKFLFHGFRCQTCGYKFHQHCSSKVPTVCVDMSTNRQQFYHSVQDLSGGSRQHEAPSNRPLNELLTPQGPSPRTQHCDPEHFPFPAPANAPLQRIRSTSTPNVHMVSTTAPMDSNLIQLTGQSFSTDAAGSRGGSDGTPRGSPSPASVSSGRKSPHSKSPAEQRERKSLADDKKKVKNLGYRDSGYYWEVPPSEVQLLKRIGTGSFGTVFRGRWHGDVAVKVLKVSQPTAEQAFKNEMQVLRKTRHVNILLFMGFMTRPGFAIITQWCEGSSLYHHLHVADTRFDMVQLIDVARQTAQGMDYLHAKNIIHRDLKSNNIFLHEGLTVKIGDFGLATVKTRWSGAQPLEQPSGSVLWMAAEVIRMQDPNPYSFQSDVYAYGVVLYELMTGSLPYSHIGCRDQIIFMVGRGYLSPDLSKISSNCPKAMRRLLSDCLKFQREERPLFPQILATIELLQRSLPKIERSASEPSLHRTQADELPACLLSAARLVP

ARAF WT = target: T2, ARAF WT (Homo sapiens, UniProt P10398); assay: PanQinase flash plate-based kinase assay
T2 sequence (P10398 1-606): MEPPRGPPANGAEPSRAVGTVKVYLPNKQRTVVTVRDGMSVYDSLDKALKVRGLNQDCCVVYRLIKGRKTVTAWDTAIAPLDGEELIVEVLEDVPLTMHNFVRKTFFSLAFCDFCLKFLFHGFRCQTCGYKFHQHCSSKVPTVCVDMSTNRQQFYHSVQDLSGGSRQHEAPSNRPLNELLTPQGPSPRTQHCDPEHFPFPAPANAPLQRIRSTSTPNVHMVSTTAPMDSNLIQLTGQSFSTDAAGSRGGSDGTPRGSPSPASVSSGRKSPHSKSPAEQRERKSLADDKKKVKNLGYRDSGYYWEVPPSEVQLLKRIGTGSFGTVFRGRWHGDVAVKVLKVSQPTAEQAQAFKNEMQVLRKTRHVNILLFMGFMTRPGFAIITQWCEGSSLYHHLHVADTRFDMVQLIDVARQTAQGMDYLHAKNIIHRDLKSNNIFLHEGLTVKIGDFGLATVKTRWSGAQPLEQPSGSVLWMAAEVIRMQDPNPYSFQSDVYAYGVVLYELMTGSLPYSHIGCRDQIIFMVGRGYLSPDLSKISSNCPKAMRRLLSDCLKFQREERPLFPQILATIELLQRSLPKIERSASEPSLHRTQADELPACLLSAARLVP

ARAF G377R = target: T3, ARAF G377R (Homo sapiens, UniProt P10398, G377R); assay: PanQinase flash plate-based kinase assay
T3 sequence (P10398 1-606 G377R): T2 sequence (P10398 1-606) with G377R

ARAF del 347_348 G387D = target: T4, ARAF del 347_348 G387D (Homo sapiens, UniProt P10398, DEL347-348/G387D); assay: PanQinase flash plate-based kinase assay
T4 sequence (P10398 with tags, fused parts or gaps DEL347-348/G387D): T1 sequence (P10398 with tags, fused parts or gaps DEL347-348) with G385D

BRAF V600E = BRAF V600E (Homo sapiens, UniProt P15056, V600E); assay: PanQinase flash plate-based kinase assay
BRAF WT = BRAF WT (Homo sapiens, UniProt P15056); assay: PanQinase flash plate-based kinase assay
CRAF WT = CRAF WT (Homo sapiens, UniProt P04049, Y340D/Y341D); assay: PanQinase flash plate-based kinase assay
[1] = tested on: metastatic NRASQ61 mutated melanoma; format: in vivo, human
Protocol: This is a phase 1 study of Compound I in participants with advanced or metastatic solid tumors harboring alterations in the MAPK pathway. The study comprises 2 parts: dose exploration (Part A) and expansion (Part B).
Compound I (i.e., (S)-5-((3-(4-(4-fluorophenyl)-1H-imidazol-2-yl) chroman-6-yl)oxy)-3,4-dihydro-1,8-naphthyridin-2 (1H)-one) is orally administered to participants BID in a capsule formulation with unit dose strengths of 10 mg or 25 mg, taken approximately 12 hours apart in the morning and in the evening. Specifically, in Part A, Compound I is administered as a single dose on Cycle 1 Day 1, with no doses administered on Days 2 and 3 before proceeding with BID dosing on Day 4 and after.
Tumor response to therapy will be assessed by the investigator using RECIST v1.1. Tumor assessments will be made by CT/MRI/PE at Screening, on Day 1 of Cycle 3 (Day 57), and every 2 cycles (56 days) thereafter until Dayl of Cycle 13, after which tumor assessments will be every 3 cycles (84 days) and at the End of Treatment Visit. Tumor assessments will include all known or suspected disease sites. Imaging must include chest, abdomen, and pelvis CT or MRI scans. Imaging will be performed on the abdomen, chest, pelvis, and the site of the primary tumor if it is located elsewhere.
Dosing regimens: To assess the safety and efficacy of Compound I in the cancer treatment, Compound I was orally administered to participants at 20 mg BID (“bis in die”, or “twice a day”), 30 mg BID, 50 mg BID, 50 mg QD (“quaque die”, “once a day”), 75 mg BID, or 100 mg QD for a period of time. Treatment-related adverse events (TRAE, Grade≤2 and Grade ≥3) were monitored and recorded. The efficacy of Compound I in treating cancer was determined by using radiologic tumor assessment as per RECIST v1.1 (e.g., PET-CT or MRI scans).

[2] = tested on: RAS (NRAS and KRAS) and RAF (BRAF Class 2/3) mutation driven colorectal cancer, non-small cell lung cancer, melanoma, and ovarian cancer xenografts; assay: Tumor growth inhibition in xenograft mice models; format: in vivo; conditions: 10 mg/kg BID, 30 mg/kg BID, 30 mg/kg QD, 100 mg/kg QD, FIGS. 1A-E
Protocol: Vehicle was administered BID as a control.
The effect of Compound I in tumor growth inhibition was evaluated in xenograft mice models carrying pathogenic RAS (NRAS and KRAS) and RAF (BRAF Class 2/3) mutation driven colorectal cancer, non-small cell lung cancer, melanoma, and ovarian cancer.

beagle dogs = conditions: 0, 3.75, 7.5, or 15 mg/kg/day once daily via oral gavage
Protocol: (§1) Compound I was evaluated in GLP-compliant 28-day oral toxicity studies in 2 preclinical species, Sprague Dawley rats and beagle dogs. In the rat 28-day study, Compound I was administered at 0, 10, 20, or 45 mg/kg/day once daily via oral gavage. […] In the dog 28-day study, Compound I was administered at 0, 3.75, 7.5, or 15 mg/kg/day once daily via oral gavage.

Sprague Dawley rats = conditions: 0, 10, 20, or 45 mg/kg/day once daily via oral gavage
Protocol: as §1

CRAF WT, sequence (P04049 307-648 Y340D/Y341D): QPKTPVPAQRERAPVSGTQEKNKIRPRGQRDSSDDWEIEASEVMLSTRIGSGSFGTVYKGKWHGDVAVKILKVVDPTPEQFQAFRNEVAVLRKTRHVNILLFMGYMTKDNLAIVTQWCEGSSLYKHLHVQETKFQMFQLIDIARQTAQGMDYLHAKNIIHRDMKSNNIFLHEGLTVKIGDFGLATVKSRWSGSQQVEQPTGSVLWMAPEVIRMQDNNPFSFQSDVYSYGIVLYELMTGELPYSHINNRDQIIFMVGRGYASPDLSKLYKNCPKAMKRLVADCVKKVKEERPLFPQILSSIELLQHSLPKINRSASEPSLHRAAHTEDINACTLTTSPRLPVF
BRAF WT, sequence (P15056 whole entry): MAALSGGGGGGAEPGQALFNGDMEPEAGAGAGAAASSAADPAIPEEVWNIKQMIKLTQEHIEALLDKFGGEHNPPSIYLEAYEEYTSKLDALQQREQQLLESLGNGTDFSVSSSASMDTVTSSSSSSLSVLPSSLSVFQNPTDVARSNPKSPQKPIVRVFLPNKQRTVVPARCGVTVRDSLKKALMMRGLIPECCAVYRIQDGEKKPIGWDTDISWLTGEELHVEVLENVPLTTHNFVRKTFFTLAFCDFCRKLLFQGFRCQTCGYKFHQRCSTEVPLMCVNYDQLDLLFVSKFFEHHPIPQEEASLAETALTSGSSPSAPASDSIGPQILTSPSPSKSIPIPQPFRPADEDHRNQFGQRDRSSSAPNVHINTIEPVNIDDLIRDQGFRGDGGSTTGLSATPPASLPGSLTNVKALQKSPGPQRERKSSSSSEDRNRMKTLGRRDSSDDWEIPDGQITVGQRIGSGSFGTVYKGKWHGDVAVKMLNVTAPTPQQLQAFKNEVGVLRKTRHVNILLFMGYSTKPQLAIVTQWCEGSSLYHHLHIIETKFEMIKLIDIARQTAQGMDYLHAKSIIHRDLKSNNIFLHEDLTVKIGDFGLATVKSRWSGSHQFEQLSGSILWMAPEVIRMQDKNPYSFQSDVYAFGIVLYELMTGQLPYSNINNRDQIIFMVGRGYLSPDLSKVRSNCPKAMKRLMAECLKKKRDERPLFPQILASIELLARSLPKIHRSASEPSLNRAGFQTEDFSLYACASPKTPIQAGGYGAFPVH
BRAF V600E, sequence (P15056 whole entry V600E): as the sequence (P15056 whole entry) above, with V600E counted along it

| IC50 (ARAF del 347_348) [nM] | IC50 (ARAF WT) [nM] | IC50 (ARAF G377R) [nM] | IC50 (ARAF del 347_348 G387D) [nM] | IC50 (BRAF V600E) [nM] | IC50 (BRAF WT) [nM] | IC50 (CRAF WT) [nM] | Compound | reduction in target lesions ([1]; after 2 months, n=1, metastatic NRASQ61 mutated melanoma, 50 mg QD) [%] | reduction in the target lesion ([1]; after 4 months (confirmation of PR), n=1, metastatic NRASQ61 mutated melanoma, 50 mg QD) [%] | PET avidity (PET/CT) ([1]; n=1, metastatic NRASQ61 mutated melanoma, 50 mg QD, FIG. 3) | tumor response per RECIST v1.1 ([1]; participant (n=1), metastatic NRASQ61 mutated melanoma, 50 mg QD oral) | tumor growth inhibition [2] | predicted human Vss [L/kg] | predicted human CL (allometrically scaled) [mL/min/kg] | IC50 (ARAF WT; average IC50 ARAF WT, PanQinase flash plate assay, kinase dead MEK K97M substrate, 0.1-3 μM ATP) | findings in 28-day oral toxicity study (beagle dogs) | findings in 28-day oral toxicity study (Sprague Dawley rats) |
| --- | --- | --- | --- | --- | --- | --- | --- | --- | --- | --- | --- | --- | --- | --- | --- | --- | --- |
| 154 | 63.5 | 621 | 67.2 | 191 | 141 | 9.7 | Cc1ccc(NC(=O)c2ccnc(C(F)(F)F)c2)cc1-c1cc(OCCO)nc(N2CCOCC2)c1 [Naporafenib] | – | – | – | – | – | – | – | – | – | – |
| 60.3 | 26 | 754 | 46.5 | 193 | 97.2 | 9.1 | Cc1ccc2c(Nc3cccc(Cl)c3F)nccc2c1NC(=O)c1csc2c(N)ncnc12 [Belvarafenib] | – | – | – | – | – | – | – | – | – | – |

| Compound | IC50 (ARAF del 347_348) [nM] | IC50 (ARAF WT) [nM] | IC50 (ARAF G377R) [nM] | IC50 (ARAF del 347_348 G387D) [nM] | IC50 (BRAF V600E) [nM] | IC50 (BRAF WT) [nM] | IC50 (CRAF WT) [nM] | reduction in target lesions ([1]; after 2 months, n=1, metastatic NRASQ61 mutated melanoma, 50 mg QD) [%] | reduction in the target lesion ([1]; after 4 months (confirmation of PR), n=1, metastatic NRASQ61 mutated melanoma, 50 mg QD) [%] | PET avidity (PET/CT) ([1]; n=1, metastatic NRASQ61 mutated melanoma, 50 mg QD, FIG. 3) | tumor response per RECIST v1.1 ([1]; participant (n=1), metastatic NRASQ61 mutated melanoma, 50 mg QD oral) | tumor growth inhibition [2] | predicted human Vss [L/kg] | predicted human CL (allometrically scaled) [mL/min/kg] | IC50 (ARAF WT; average IC50 ARAF WT, PanQinase flash plate assay, kinase dead MEK K97M substrate, 0.1-3 μM ATP) | findings in 28-day oral toxicity study (beagle dogs) | findings in 28-day oral toxicity study (Sprague Dawley rats) |
| --- | --- | --- | --- | --- | --- | --- | --- | --- | --- | --- | --- | --- | --- | --- | --- | --- | --- |
| O=C1CCc2c(Oc3ccc4c(c3)CC(c3ncc(-c5ccc(F)cc5)[nH]3)CO4)ccnc2N1 (stereo not drawn) [Compound I, 5-((3-(4-(4-fluorophenyl)-1H-imidazol-2-yl)chroman-6-yl)oxy)-3,4-dihydro-1,8-naphthyridin-2 (1H)-one] | 68.3 | – | 142 | 20.4 | 40.2 | 40.6 | 2.3 | 61 | 69 | significant resolution of PET avidity | partial response (PR) | dose-dependent tumor growth inhibition effect | 0.77 | 1.2 | 15.7 nM and 11.4 nM | No mortality, and no clinical signs, changes in body weight or food consumption, ophthalmology, ECG, clinical pathology, macroscopic or microscopic findings of toxicological relevance were noted | No mortality, and no clinical signs, changes in body weight or food consumption, ophthalmology, clinical pathology or macroscopic findings of toxicological relevance were noted |

Reference: US20260232643A1, “METHODS OF TREATING SOLID TUMORS WITH MITOGEN ACTIVATED PROTEIN KINASE (MAPK) PATHWAY ALTERATIONS” (Jazz Pharmaceuticals Ireland Limited, priority 2023, published 2026)
